Entries after “also recorded” stand apart in the source; their conditions may differ.
What was measured:
Format in all cases: cell-based
PPAR-γ = test: Expression of the adipogenic transcription regulator PPAR-γ in 3T3 cells; conditions: cells exposed to resveratrol during differentiation
Excerpt: AICAR stimulates AMPK signaling and inhibits adipogenesis in 3T3 cells. To distinguish whether the effect of resveratrol was to inhibit differentiation or mobilize fat from 3T3 cells, we examined whether resveratrol inhibited the expression of adipogenic transcription regulators such as PPAR-γ.

NIH3T3 cells = test: Adipocyte differentiation and fat content by Oil Red O staining, NIH3T3 cells
Method: (§1) To obtain evidence that resveratrol affects fat metabolism in a physiologically relevant cell, we examined the effect of increasing concentrations of resveratrol on 3T3-L1 and NIH3T3 cell differentiation and fat content. 3T3-L1 or NIH3T3 cells were grown to confluence and allowed to pack in for 2 days at which point differentiation was initiated by addition of isobutylmethylxanthine, dexamethasone and insulin in the presence of vehicle (ethanol alone) or resveratrol at concentrations of 0, 12.5 and 25 μM. After 10 days of differentiation, fat content was assessed by Oil Red O staining, as described below. The results, which are shown in FIG. 12, indicate that concentrations of 25 μM or higher resveratrol decreased the quantity of cellular fat in 3T3-L1 and NIH3T3 cells. The results in NIH3T3 cells confirm the results obtained in C. elegans.
To further examine whether resveratrol activation of sir2 could promote fat mobilization or inhibition of differentiation in mammalian cells, we infected growing cells with wild-type SIRT1 or a deacetylase deficient form of SIRT1. […]
(§2) 3T3-L1 and NIH3T3 cells were maintained in DMEM plus 10% calf serum. […] The staining of adipocytes with Oil Red-O and quantitation was performed as described previously (Ramirez-Zacarias J L, Castro-Munozledo F, Kuri-Harcuch W. Histochemistry. 1992 July; 97(6):493-7). […]

phosphorylation of ACC = test: Western blot of ACC phosphorylation in HEP3B human hepatoma cells; conditions: resveratrol-treated cells with SIRT1 overexpressed or knocked down
Method: Similar results were also observed for HEP3B human hepatoma cells. In this case phosphorylation of ACC was measured in cells were SIRT1 was overexpressed (see FIG. 9, 4 right lanes) and in cells were SIRT1 was knocked down (FIG. 9, left lane). […] Tubulin served as a loading control.

3T3-L1 cells = test: Adipocyte differentiation and fat content by Oil Red O staining, 3T3-L1 cells
Method: as §1
We then infected 3T3 preadipoctyes/adipocytes with pMX alone or pMX encoding PPAR-γ and examined the effect of resveratrol on 3T3 cell differentiation. 3T3-L1 and NIH3T3 cells were infected with a plasmid expressing GFP or PPAR-γ and grown to confluence. […]
as §2

[1] = test system: AMPK and ACC phosphorylation; test: Western blot of AMPK and ACC phosphorylation in mouse embryonic fibroblasts; conditions: LKB1−/− cells; 50, 100, 200 μM
Method: Similar results were also observed in mouse embryonic fibroblast (MEFs). […] Cells in the left panel were incubated overnight without serum before harvesting; the cells on the right were not incubated under serum free conditions. […] Tubulin served as a loading control.

[2] = test system: phosphorylation of AMPK on threonine 172 and of ACC on serine 79; test: Western analysis of AMPK and ACC phosphorylation in CHO-HIR cells
Method: CHO-HIR mammalian cells were washed in PBS and incubated overnight in serum-free DMEM before treatment with 500 μM AICAR (positive control) or 12.5 μM, 25 μM or 50 μM resveratrol. Cells were harvested after 30 minutes and lysates were immediately boiled in SDS and subjected to Western analysis with site-specific antibodies. Phosphorylation of AMPK at Thr172 indicates activation of the kinase. Active AMPK phosphorylates and inactivates ACC at serine 79.
CHO cells were also treated with 500 μM AICAR (positive control), DMSO, 100 nM, 500 nM, 2.5 μM, 12.5 μM, 25 μM, or 50 μM resveratrol and subject to Western Blot analysis as described above. Western blots were stripped and re-probed for phosphorylated (active) AMPK, total AMPK, phosphorylated acetyl CoA carboxylase (ACC), which is the downstream target of AMPK, and tubulin, which served as a loading control.

[3] = 10 days of differentiation, 0, 12.5 and 25 μM tested, Oil Red O

`Oc1ccc(/C=C/c2cc(O)cc(O)c2)cc1` [resveratrol, 3,5,4′-Trihydroxy-trans-stilbene] was tested, and the “PPAR-γ RNA / expression” value (PPAR-γ) was “did not show an increase in PPAR-γ RNA; also recorded: marked decrease in PPARγ expression”, the “concentrations that decreased the quantity of cellular fat” value (NIH3T3 cells; [3]) was at least 25 µM and the “decrease in fat content” value (NIH3T3 cells; cells expressing SIRT1 deacetylase deficient mutant (SIRT1ΔHY), 0, 12.5 or 25 μM, eight days) was “partially reduced”. For the same compound, the “phosphorylation of ACC” value (phosphorylation of ACC) was “Phosphorylation of ACC was not affected”, the “concentrations that decreased the quantity of cellular fat” value (3T3-L1 cells; [3]) was at least 25 µM and the “inhibition of 3T3 preadipocyte differentiation” value (3T3-L1 cells; cells overexpressing PPAR-γ, 0, 25 or 50 μM, eight days of differentiation) was “partially negated inhibition of 3T3 preadipocyte differentiation by resveratrol”. For the same compound, the “AMPK and ACC phosphorylation” value [1] was “still causes an upregulation of both AMPK and ACC phosphorylation”, the “activation of AMPK (phosphorylated AMPK and ACC)” value ([2]; CHO cells, 100 nM, 500 nM, 2.5, 12.5, 25 or 50 μM) was “activation of AMPK in CHO cells with increasing concentrations of resveratrol” and the “phosphorylation of AMPK (threonine 172) and ACC (serine 79)” value ([2]; resveratrol 12.5, 25 or 50 μM, AICAR 500 μM (positive control), 30 minutes, serum-free overnight) was “stimulates phosphorylation of AMPK and ACC”.

— patent US9597347B2, “Compositions for treating obesity and insulin resistance disorders” (President and Fellows of Harvard College, priority 2003, dated 2017)
